# Where two headings read alike, the source gives them in different places.
# Assays:
# [1] = cited from earlier work
# [2] = Non-clinical drug–drug interaction / oral pharmacokinetic study in Sprague–Dawley rats; type: in vivo, rat; conditions: for AUC(0-inf) / CL/F / Cmax / Tmax / half-life: male, Sprague-Dawley, plasma
# Procedure: Male Sprague–Dawley (SD) rats, 7 weeks old (180–210 g), were purchased from Hana Biotech (Pyeongtaek, Republic of Korea). The rats were kept in a room with a relative humidity of 50–60%, a temperature of 21 ± 2 °C, and a 12 h light/dark cycle and were acclimatized to these conditions for a week. The protocol for these experiments was approved by Inje University’s Animal Care Committee (Inje 2022-012, Gimhae, Republic of Korea).
# The drug was orally administered via a feeding tube, employing a total dosing volume of 5 mL/kg across all groups. Blood samples (approximately 200 μL) were collected from the jugular vein at 0.25, 0.5, 1, 2, 3, 4, 6, 8, 12, and 24 h post-dose. […] The blood samples were promptly centrifuged at 15,000 rpm for 5 min at 4 °C. The resulting plasma was stored at -70 °C until HPLC or LC-MS/MS analysis.
# The calculated pharmacokinetic parameters included the following: area under the time–plasma concentration curve (AUC) between from0 to infinity (AUCinf); maximum plasma concentration (Cmax); time to reach maximum concentration (Tmax); terminal half-life (t1/2); oral clearance (CL/F). Pharmacokinetic parameters are expressed as the mean ± standard deviation (SD). For statistical analysis, a Student’s t-test was performed using GraphPad Prism software (San Diego, CA, USA) with a significance threshold of less than 0.05.
# The LC-MS/MS system consisted of an Agilent 6490 triple quadrupole mass spectroscopy system and a 1290 infinity HPLC system (Agilent Technologies, Santa Clara, CA, USA). The separation of compounds was accomplished by a reversed-phase column (Synergi Polar-RP 80 Å, 150 × 2.0 mm, 4 μm, Phenomenex, Torrance, CA, USA) with a security guard. […] Multiple reaction monitoring (MRM) modes were used for the quantitative study of the compound’s precursor ion and product ion transitions. […] In addition, 1′-hydroxy midazolam was analyzed under the following conditions. The mobile phase was a mixture of 0.1% formic acid in water and ACN (50:50 v/v), with a flow rate of 0.2 mL/min. The column temperature was kept constant at 25 °C. The following ion values (m/z) were obtained by monitoring the transitions: 1′-hydroxy midazolam, 342.0 → 203.1; phenacetin (IS), 180.0 → 162.2. The data analysis was achieved using MassHunter software version A.06.00 (Agilent Technologies, Santa Clara, CA, USA).
# The HPLC system included a degasser pump (L-2130), a column oven (L-2300), an autosampler (L-2200), and a diode array detector (L-2455). The analysis was carried out using the software Hitachi LaChrom D-2000 Elite (Merck-Hitachi, Tokyo, Japan). The separation was accomplished using a reversed-phase column (Synchronis C18 150 × 4.6 mm, 5 μm, Thermo Scientific, Waltham, MA, USA) with a guard column (security guard C18 4 × 2.0 mm, Phenomenex, Torrance, CA, USA). The mobile phase was comprised of phases A (ACN) and B (0.015 M potassium phosphate monobasic (KH2PO4) with 2.8 mM triethylamine in water). The mobile phase was A:B = 60:40, with a flow rate of 1.5 mL/min. The temperature of the column oven controller was maintained at 40 °C, and 50 μL of sample was injected into the system.
# [3] = cited from earlier work; remark: listed apart in the source
# [4] = cited from earlier work; remark: listed apart in the source
# [5] = cited from earlier work; remark: listed apart in the source
# CYP3A4 = conditions: nicardipine, cited from earlier work
# [6] = cited from earlier work; remark: listed apart in the source
# hCYP3A4 = system: hCYP3A4; design: method as in PMID 22496391; conditions: saxagliptin, cited from earlier work
# CYP3A2 = molecular target: T1, CYP3A2 (Rattus norvegicus, UniProt P05183); assay: Saxagliptin metabolic stability with recombinant rat CYP3A2; type: in vitro ADME; conditions: rat, recombinant rat CYP3A2, pH 7.4; read-out: half-life after incubation with rCYP3A2 reaction mixture
# T1 construct: purchased Xenotech (Lenexa, KS, USA)
# T1 sequence (P05183 1-504): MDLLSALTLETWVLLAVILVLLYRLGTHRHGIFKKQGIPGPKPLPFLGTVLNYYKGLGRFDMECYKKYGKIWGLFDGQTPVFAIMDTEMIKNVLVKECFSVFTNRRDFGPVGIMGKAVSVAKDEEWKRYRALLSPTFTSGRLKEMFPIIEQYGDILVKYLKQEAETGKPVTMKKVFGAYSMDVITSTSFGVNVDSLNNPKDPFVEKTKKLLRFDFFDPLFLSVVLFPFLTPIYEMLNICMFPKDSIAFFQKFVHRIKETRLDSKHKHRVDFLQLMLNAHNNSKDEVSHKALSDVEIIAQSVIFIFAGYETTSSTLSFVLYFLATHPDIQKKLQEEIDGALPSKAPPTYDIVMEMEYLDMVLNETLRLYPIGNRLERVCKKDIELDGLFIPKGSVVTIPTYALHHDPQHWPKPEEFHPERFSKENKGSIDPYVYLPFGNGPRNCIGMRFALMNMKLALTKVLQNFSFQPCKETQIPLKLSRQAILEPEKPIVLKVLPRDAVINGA
# Procedure: (§1) After initiating the reaction by adding NADPH solution, the sampling was carried out at 37 °C for 0, 5, 10, 20, and 30 min in triplicate and stopped with methanol containing 200 ng/mL tolbutamide as an internal standard (IS) for HPLC analysis.
# [7] = molecular target: T2, recombinant rat CYP3A2 (rCYP3A2) (Rattus norvegicus, UniProt P05183); assay: as above; type: in vitro ADME; conditions: in-house data
# T2 construct: purchased Xenotech (Lenexa, KS, USA)
# T2 sequence (P05183 1-504): T1 sequence (P05183 1-504)
# Procedure: as §1
# hCYP3A5 = system: hCYP3A5; design: method as in PMID 22496391; conditions: saxagliptin, cited from earlier work
# [8] = saxagliptin, cited from earlier work
# [9] = nicardipine, input of rat and human models
# [10] = nicardipine, rat and human models
# [11] = saxagliptin, rat PBPK model input
# [12] = saxagliptin, human PBPK model input
compound,measurement,setting,value
COC(=O)C1=C(C)NC(C)=C(C(=O)OCCN(C)Cc2ccccc2)C1c1cccc([N+](=O)[O-])c1 (centres unmarked) [nicardipine],"Fraction unbound, rat, input value","[1]; nicardipine, rat PBPK model input",0.084
same,"Fraction unbound, rat, reference value","[1]; nicardipine, rat plasma",0.084
same,AUC(0-inf),"[2]; rat, po, 15 mg/kg, AUCinf of nicardipine, 15 mg/kg alone, mean ± SD",408 ± 121 ng·h/mL
same,CL/F,"[2]; rat, po, 15 mg/kg, CL/F of nicardipine, 15 mg/kg alone, mean ± SD",662 mL/min/kg
same,Cmax,"[2]; rat, po, 15 mg/kg, Cmax of nicardipine, 15 mg/kg alone, mean ± SD",132 ± 35.3 ng/mL
same,Tmax,"[2]; rat, po, 15 mg/kg, Tmax of nicardipine, 15 mg/kg alone, mean ± SD",0.357 ± 0.134 h
same,half-life,"[2]; rat, po, 15 mg/kg, t1/2 of nicardipine, 15 mg/kg alone, mean ± SD",5.76 ± 1.45 h
same,"Specific intestinal permeability, input value",[3]; [9],1.15 10^−6 cm/s
same,"Specific intestinal permeability, reference value",[3]; [10],1.15 10^−6 cm/s
same,"pKa (compound type), input value","[4]; nicardipine, base, input of rat and human models",8.1 (base)
same,"pKa (compound type), reference value","[4]; nicardipine, base, rat and human models",8.1 (base)
same,"Lipophilicity, input value",[4]; [9],4.6 logD7.4
same,"Solubility (ref-pH), input value","[4]; nicardipine, pH 7, input of rat and human models",7.9 (pH 7) mg/mL
same,"Solubility (ref-pH), reference value","[4]; nicardipine, pH 7, rat and human models",7.9 (pH 7) mg/mL
same,"Lipophilicity, reference value",[4]; [10],4.6 logD7.4
same,"Fraction unbound, human, input value","[5]; nicardipine, human PBPK model input",0.01
same,"Fraction unbound, human, reference value","[5]; nicardipine, human plasma",0.01
same,AUCinf observed,"[6]; nicardipine, human po 40 mg",163 ng·h/mL
same,Cmax observed,"[6]; nicardipine, human po 40 mg",58.8 ng/mL
same,t1/2 observed,"[6]; nicardipine, human po 40 mg",2.80 h
N#C[C@@H]1C[C@@H]2C[C@@H]2N1C(=O)[C@@H](N)C12CC3CC(CC(O)(C3)C1)C2 [saxagliptin],"CLint hCYP3A4, input",hCYP3A4; human PBPK model input,0.38 μL/min/pmol CYP
same,"CLint hCYP3A4, reference",hCYP3A4; human,0.38 μL/min/pmol CYP
same,"Fraction unbound, rat, input",[1]; [11],0.82
same,"Fraction unbound, rat, reference","[1]; saxagliptin, rat",0.82
same,half-life at 5 μM,CYP3A2,0.58 h
same,"CLint rCYP3A2, reference","[7]; saxagliptin 5 μM, 10 pmol CYP/mL, 1 mM NADPH, 37 °C",1.99 μL/min/pmol CYP
same,"CLint rCYP3A2, input",[7]; [11],1.99 μL/min/pmol CYP
same,AUC(0-inf),"[2]; rat, po, 5 mg/kg, AUCinf of saxagliptin, alone, SXG 5 mg/kg alone, mean ± SD",156 ± 22.9 ng·h/mL
same,AUC(0-inf),"[2]; rat, po, 5 mg/kg, AUCinf of saxagliptin, co-administered with nicardipine, rat, po, SXG 5 mg/kg + NCD 15 mg/kg, mean ± SD",408 ± 213 ng·h/mL
same,CL/F,"[2]; rat, po, 5 mg/kg, CL/F of saxagliptin, alone, SXG 5 mg/kg alone, mean ± SD",542 mL/min/kg
same,CL/F,"[2]; rat, po, 5 mg/kg, CL/F of saxagliptin, co-administered with nicardipine, rat, po, SXG 5 mg/kg + NCD 15 mg/kg, mean ± SD",238 mL/min/kg
same,Cmax,"[2]; rat, po, 5 mg/kg, Cmax of saxagliptin, alone, SXG 5 mg/kg alone, mean ± SD",98.5 ± 15.1 ng/mL
same,Cmax,"[2]; rat, po, 5 mg/kg, Cmax of saxagliptin, co-administered with nicardipine, rat, po, SXG 5 mg/kg + NCD 15 mg/kg, mean ± SD",281 ± 147 ng/mL
same,Tmax,"[2]; rat, po, 5 mg/kg, Tmax of saxagliptin, alone, SXG 5 mg/kg alone, mean ± SD",0.417 ± 0.129 h
same,Tmax,"[2]; rat, po, 5 mg/kg, Tmax of saxagliptin, co-administered with nicardipine, rat, po, SXG 5 mg/kg + NCD 15 mg/kg, mean ± SD",0.464 ± 0.094 h
same,half-life,"[2]; rat, po, 5 mg/kg, t1/2 of saxagliptin, alone, SXG 5 mg/kg alone, mean ± SD",1.82 ± 0.737 h
same,half-life,"[2]; rat, po, 5 mg/kg, t1/2 of saxagliptin, co-administered with nicardipine, rat, po, SXG 5 mg/kg + NCD 15 mg/kg, mean ± SD",2.97 ± 1.23 h
same,Cmax,"[2]; rat, po, Cmax of saxagliptin, co-administered with nicardipine, rat, po, SXG 5 mg/kg + NCD 15 mg/kg, mean ± SD",280 ± 147 ng/mL
same,"AUCinf of saxagliptin, alone","[2]; rat, po, SXG 5 mg/kg alone, mean ± SD, listed as SXG",157 ± 23.1 ng·h/mL
same,increase of plasma concentration of saxagliptin in vivo,"[2]; rats, co-administration with nicardipine",more than 2 fold
same,"CLint hCYP3A5, input",hCYP3A5; human PBPK model input,0.09 μL/min/pmol CYP
same,"CLint hCYP3A5, reference",hCYP3A5; human,0.09 μL/min/pmol CYP
same,"Renal clearance, rat, input",[8]; rat PBPK model input,38 mL/min/kg
same,"Renal clearance, rat, reference",[8]; rat,38 mL/min/kg
same,"Specific intestinal permeability, reference","[3]; saxagliptin, rat and human models",2.73 10^−6 cm/s
same,"pKa (compound type), input","[4]; saxagliptin, base, input of rat and human models",7.9 (base)
same,"pKa (compound type), reference","[4]; saxagliptin, base, rat and human models",7.9 (base)
same,"Solubility (ref-pH), input","[4]; saxagliptin, pH 7, input of rat and human models",17.6 (pH 7) mg/mL
same,"Solubility (ref-pH), reference","[4]; saxagliptin, pH 7, rat and human models",17.6 (pH 7) mg/mL
same,"Lipophilicity, reference","[4]; saxagliptin, reference value for rat and human PBPK models",−0.35 logD7.4
same,"Fraction unbound, human, input",[5]; [12],1
same,"Fraction unbound, human, reference","[5]; saxagliptin, human",1
same,AUCinf observed,"[6]; saxagliptin, human po 2.5 mg",49.1 ng·h/mL
same,Cmax observed,"[6]; saxagliptin, human po 2.5 mg",7.89 ng/mL
same,t1/2 observed,"[6]; saxagliptin, human po 2.5 mg",7.21 h
same,"Renal clearance, human, input",[6]; [12],1.9 mL/min/kg
same,"Renal clearance, human, reference","[6]; saxagliptin, human",1.9 mL/min/kg
